The test system of test [1] is catagenic papilla cells (PGE2 production). As to the kind of experiment: Inhibition of IL-1α-induced production of PGE2 by catagenic papilla cells cultured in vitro. To be noted: 10 μM tripeptide; for PGE2: IL-1α 10 ng/ml for 20 hours, control 9.2, IL-1α alone 100.2; for % inhibition: PGE2 production induced by IL-1α 10 ng/ml. The format is cell-based. The procedure: Measurement of the inhibition of the production of PGE2 by catagenic papilla cells cultured in vitro.
The cells (1,000 per well), at the 24th passage, were incubated in 199 medium marketed by Gibco in the presence of 1% foetal calf serum and of antibiotics. 20 hours later, the medium was replaced by an identical medium, but containing the tripeptides to be evaluated at a final concentration of 10 μM. 5 hours later, interleukin-1α was added at a final concentration of 10 ng/ml. 20 hours later, the PGE2 levels produced by the cultured papilla cells were evaluated by means of a Biotrack kit marketed by Amersham, the manufacturer's instructions being followed. This method thus made it possible to evaluate the inhibiting effect of these tripeptides on the production of PGE2 induced by a proinflammatory cytokine: interleukin-1α.

The subject of test [2] is mRNA of IL-1α. As to the kind of experiment: Expression of IL-1α messenger RNA in plucked hairs (RT-PCR, relative to GAPDH), 3 h 30 min. The test is classed as cell-based, human. As to conditions: treated batch, band intensity divided by GAPDH, control batch 100%. How it is done: (§1) Inhibition of the expression of the messenger RNAs of proinflammatory and inflammatory cytokines in response to the Ac-KPV-NH2* tripeptide.
(§2) Ten plucked hairs were removed from the region of the vertex of a volunteer suffering from inflammatory alopecia. These were placed in a Williams' survival medium E (marketed by Gibco BRL) containing penicillin G (100 units/ml), streptomycin S (100 μg/ml) and amphotericin (250 ng/ml), in the presence (treated batch) or in the absence (control) of the Ac-KPV-NH2* tripeptide, synthesized to order by Neosystem S. A., (Strasbourg).
(§3) After incubating for 3 h, 30 min, the messenger RNAs corresponding to these two batches of hair were purified from a “quick prep mRNA purification kit” marketed by Pharmacia. DNAs complementary to these mRNAs were then prepared by means of a reverse transcription kit marketed by Pharmacia, the manufacturer's instructions being followed, and then subjected to a polymerization chain reaction (PCR) stage by using primers specific for the mRNAs of glyceraldehyde-3-phosphate dehydrogenase (GAPDH), of IL-1α, of the type-1 IL-1 receptor and of the type-2 IL-1 receptor. The amounts of amplified DNA were then evaluated by electrophoresis on 1.5% agarose gel in the presence of ethidium bromide. […]

Test [3] has as its system interleukin-1α. As to the kind of experiment: Production of interleukin-1α in the supernatant of plucked hairs from a patient with inflammatory alopecia (ELISA). The format is cell-based, human. To be noted: 20 hours; for % of inhibition: IL-1α in supernatant of plucked hairs; for IL-1α: supernatant of plucked hairs, control 21.8 pg/ml. How it is done: Dose-response activity of the Ac-KPV-NH2* tripeptide with respect to the production of interleukin-1α in the supernatant of plucked hairs emanating from a patient afflicted with inflammatory alopecia.
Plucked hairs were removed from the region of the vertex of a volunteer suffering from inflammatory alopecia. They were placed in a Williams' survival medium E (marketed by Gibco BRL) containing penicillin G (100 units/ml), streptomycin S (100 μg/ml) and amphotericin (250 ng/ml), in the presence or in the absence (control) of the Ac-KPV-NH2* tripeptide, synthesized to order by Neosystem S. A. (Strasbourg), at the doses indicated. After incubating for 20 hours, the culture supernatants were collected in a tube and then centrifuged for 5 minutes at 14,000 revolutions/minute (Eppendorff centrifuge, model 5415C). The supernatants were then collected in a clean tube and placed at 4° C.
The interleukin-1α concentration was then evaluated with respect to 100 μl of supernatant by means of a Biotrak ELISA kit marketed by Amersham, according to the manufacturer's instructions.
On the technique in general: In an ELISA, binding on a coated surface is turned into a signal by an enzyme label.

The test system of test [4] is mRNA of the type-1 IL-1 receptor (IL-1R1). As to the kind of experiment: Expression of type-1 IL-1 receptor messenger RNA in plucked hairs (RT-PCR, relative to GAPDH), 3 h 30 min. The format is cell-based, human. As to conditions: treated batch, band intensity divided by GAPDH, control batch 100%. How it is done:
as §1, §2, §3

Test [5] concerns mRNAs of IL-1α. As to the kind of experiment: Expression of the mRNAs of IL-1α calculated from the IL-1α/GAPDH ratio, plucked hairs of two donors, 20 hours. The format is cell-based, human. The procedure:
Inhibiting effect of Ac-KPV-NH2* on the expression of the mRNAs of IL-1α, calculated from the IL-1α/GAPDH ratio.
5 hairs were plucked from two different donors and were then incubated for 20 hours at 37° C. (5% CO2) in Williams' medium E supplemented with antibiotics and with glutamine and in the presence of Ac-KPV-NH2* at the concentrations indicated. A control was carried out in which there was no peptide added.

Data on three substances can be found in patent US20080038208A1, “Pharmaceutical/cosmetic compositions comprising the lysine-d-proline-valine tripeptide” (SOCIETE L'OREAL S.A., priority 1995, published 2008).

As a reminder, the % inhibition is the share of the control response that was lost under treatment. Regarding “Acetyl-(L)Lys-(L)Pro-(L)Val-NH2 [Ac—K—P—V—NH2**, reference compound]”, in test [1], the PGE2 was 10.0 pg/mL and the “% inhibition” value is 90%.
In the case of “Acetyl-(L)Lys-(D)Pro-(L)Val-NH2 [Ac—K—(D)P—V—NH2***]”, in test [1], the PGE2 is 24.6 pg/mL and the “% inhibition” value came out at 75%.
“Acetyl-(D)Lys-(D)Pro-(D)Val-NH2 [Ac—KPV—NH2*]”: in test [2], the “% of expression IL-1α” value was found to be 0%. In test [1], this substance displayed a PGE2 of 28.0 pg/mL. Also, the “% inhibition” value in test [1] was determined as 78%. Moreover, the “% of inhibition” value in test [3] (1 μM) stood at 49%; in test [3] (10 μM), 72%. In addition, the IL-1α in test [3] (1 μM) came out at 11.1 pg/mL; in test [3] (10 μM) it was 6.1 pg/mL. Besides, the “% of expression IL-1R1” value in test [4] was determined as 26%. In addition, the “expression of the mRNAs of IL-1α (IL-1α/GAPDH ratio), % of the control” value was 51% in test [5] (donor A, 1 μM); 28% in test [5] (donor A, 10 μM); 53% in test [5] (donor B, 0.1 μM); 62% in test [5] (donor B, 1 μM); 28.7% in test [5] (donor B, 10 μM).
